Activity calls are given as the source filed them.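 Rule for the calls: active = mean half-maximal activating concentration from the dose-response fit at or below a set limit; inactive = the rest.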

The experiment has as its target CHO-XBP1 luciferase reporter, IRE1-XBP1 UPR activation. Put plainly: activators of IRE1-XBP1 UPR arm, dose response, counter-screen for apoptotic UPR arm activators, CHO-XBP1 cells, luminescence (AID 489040).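 Note: reporter read after six hours of compound exposure.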
Usually EC50 stands for the concentration at which the effect is half-maximal. In the case of `Cc1ccc(NC(=O)Cn2ncc(Cl)c(Cl)c2=O)cc1S(=O)(=O)N1CCCCC1`, the EC50 was > 80 µM (inactive).

As for `CCc1cccc2sc(N3CCN(C(=O)c4ccc([N+](=O)[O-])o4)CC3)nc12`, the EC50 is > 80 µM (inactive). Take `Cc1cccc(C)c1NC(=O)c1nc(S(=O)(=O)Cc2ccccc2)ncc1Cl`: the EC50 is > 80 µM (inactive).

Regarding `O=S(=O)(c1ccc(Cl)cc1)c1snnc1-c1ccccc1`, the EC50 was > 80 µM (inactive). The value for `COc1cccc2sc(Nc3nnc(-c4cccs4)o3)nc12` was > 80 µM (inactive); that for `COC(=O)C1=C(C)N(c2ccc(C)c(C)c2)/C(=C/c2cccs2)C1=O` was > 80 µM (inactive). The value for `Cc1cc(C)c(C(CC(=O)c2cccs2)C(C#N)C#N)c(C)c1` (centres undefined) was > 80 µM (inactive). The value for `O=C(Nc1ccc2oc(-c3ccc4ccccc4c3)nc2c1)c1ccc2c(c1)OCCO2` was “inactive”; that for `COC(=O)c1ccc(C(=O)OC)c(NC(=O)CSc2cccc[n+]2[O-])c1` was 9.54 µM; that for `O=C1Nc2ccccc2/C1=C\C(=O)c1ccccc1` was > 80 µM (inactive).

As for `COc1ccccc1N1CCN(Cc2ccc(O)c3ncccc23)CC1`, the EC50 is > 80 µM (inactive). The result for `O=C(Nc1ccc(S(=O)(=O)N2CCOCC2)cc1)c1ccc([N+](=O)[O-])o1` reads > 80 µM (inactive); that for `O=S(=O)(CCSc1nc2ccccc2s1)c1nc2ccccc2s1`, > 80 µM (inactive); that for `COc1ccc(-c2cc(-c3ccccc3)c(C#N)c(S(C)(=O)=O)n2)cc1`, 5.94 µM. The value for `C/C(=N\NC(=O)c1ccc(Cl)cc1)c1ccccn1` was > 80 µM (inactive).

Turning to `O=C(/C(=C/c1ccc(Cl)cc1)c1nc2ccccc2[nH]1)c1ccccc1`, the EC50 was > 80 µM (inactive). The result for `S=C1SCN(CC2CC2)CN1CC1CC1` reads > 80 µM (inactive); that for `CCOC(=O)Cc1csc(/N=C/c2c(O)n(-c3ccc(C)c(C)c3)c(=O)c3ccccc23)n1`, 18.3 µM; that for `Cc1ccc(Nc2nc(-c3ccc(O)c(O)c3)cs2)nc1`, > 80 µM (inactive).

Consider `CCOC(=O)N1CCN(S(=O)(=O)c2ccc(C(=O)Nc3nc4c(s3)CC(C)CC4)cc2)CC1` (centres undefined), for which the EC50 is > 80 µM (inactive).

Turning to `COc1cccc2sc(Nc3nc(-c4ccccn4)cs3)nc12`, the EC50 was > 80 µM (inactive). The result for `CC(C)C(=O)N1CCN(c2ccc(NC(=O)c3ccc([N+](=O)[O-])o3)cc2)CC1` reads > 80 µM (inactive). Take `COc1ccc(O)c(/C=N/Nc2nc(Nc3ccccc3)nc(-n3nc(C)cc3C)n2)c1`: the EC50 is > 80 µM (inactive).

Turning to `O=C(/C(=C/c1ccc(Cl)cc1)c1nc2ccccc2[nH]1)c1cccs1`, the EC50 is > 80 µM (inactive). The result for `O=C(Nc1ccc(Cc2ccncc2)cc1)c1ccc([N+](=O)[O-])o1` reads > 80 µM (inactive); that for `CC1(C)CC(=O)C2=C(C1)Oc1nc3ccccc3cc1C2C(C#N)C#N` (centres undefined), > 80 µM (inactive); that for `Cc1ccc(Sc2nc(-c3ccccc3)nnc2C(F)(F)F)cc1`, > 80 µM (inactive).

Regarding `Cc1[nH]c2ccccc2c1CN1CCC(Cc2ccccc2)CC1`, the EC50 is > 80 µM (inactive). The result for `O=S(=O)(Nc1cccc2cccnc12)c1ccc(S(=O)(=O)N2CCCC2)cc1` reads > 80 µM (inactive); that for `Cc1ccc2nc(-c3ccc(NC(=S)NC4CC(C)(C)NC(C)(C)C4)cc3)sc2c1`, > 80 µM (inactive); that for `COc1cc(SC#N)ccc1N=Cc1c(C)[nH]n(-c2ccc(Cl)cc2)c1=O`, 15.9 µM. With `CCOC(=O)c1ccc(N2C(=O)C=CC2=O)cc1`, the EC50 was > 80 µM (inactive). The result for `O=C(Cn1cc(/C=C\[N+](=O)[O-])c2ccccc21)Nc1ccccc1` reads > 80 µM (inactive). On to `COc1ccc(-n2c(C)cc(C(=O)CCl)c2C)cc1`, for which the EC50 is 4.68 µM. The result for `CC1=NOC(=O)/C1=C\c1ccc(-c2ccc(Cl)cc2Cl)o1` reads > 80 µM (inactive); that for `S=C1SCN(Cc2ccccn2)CN1Cc1ccco1`, > 80 µM (inactive). The value for `Cc1ccnc(Nc2nc(-c3ccc(O)c(O)c3)cs2)c1` was > 80 µM (inactive); that for `Cc1ccc(C(=O)C(C(=O)/C=C/c2ccccc2)=C2SCCCS2)cc1` was > 80 µM (inactive); that for `Cc1ccc(F)cc1N=Cc1c(O)c2ccccc2oc1=O` was > 80 µM (inactive). The value for `CCOc1ccc(-n2c(C)cc(C(=O)CCl)c2C)cc1` was 5.83 µM; that for `Cc1c(C(=O)c2no[n+]([O-])c2C(=O)c2cnn(C)c2C)cnn1C` was > 80 µM (inactive); that for `Oc1ccc(/C=N/Nc2nc(N3CCCC3)nc(N3CCCC3)n2)cc1O` was 18 µM. Take `CC1(C)CC(=O)C(=Cc2cn(-c3ccccc3)nc2-c2ccccc2)C(=O)C1`: the EC50 was > 80 µM (inactive).

In the case of `COc1ccc(C(=O)Sc2ccc(Cl)cc2)cc1OC`, the EC50 was > 80 µM (inactive). For the compound `Cc1ccc(S/C=C\C(=O)c2ccccc2)cc1`, the EC50 is > 80 µM (inactive). The value for `COc1ccc(NC(=O)c2sc3nc(N4CCOCC4)c4c(c3c2N)CC(C)(C)OC4)c(OC)c1` was > 80 µM (inactive); that for `Clc1ccc(-n2nnnc2Sc2ncnc3sccc23)cc1` was > 80 µM (inactive).

Take `CCOC(=O)c1cnc(-n2nc(C)cc2C)nc1NC1CCCCC1`: the EC50 was > 80 µM (inactive).

Turning to `C/C(=C\c1ccc(N(C)C)cc1)[N+](=O)[O-]`, the EC50 was > 80 µM (inactive).

Regarding `COc1ccc(NC(=O)C(=O)N/N=C\c2ccc(CNC(=O)C(=O)Nc3ccc(C)c(C)c3)o2)c(OC)c1`, the EC50 was > 80 µM (inactive). For the compound `Cn1nnnc1Sc1ncnc2scc(-c3ccc([N+](=O)[O-])cc3)c12`, the EC50 was > 80 µM (inactive).

As to `CCOC(=O)c1c(-c2ccc(-c3ccccc3)cc2)csc1NC(=O)CNCCN(C)C`, the EC50 was > 80 µM (inactive). The value for `Cc1ccc(-c2nc(N/N=C/c3cccc([N+](=O)[O-])c3)c3ccccc3n2)cc1` was > 80 µM (inactive); that for `COc1ccc(NS(=O)(=O)c2ccc3ccccc3c2)c2ncccc12` was > 80 µM (inactive); that for `CS(=O)(=O)c1nc(-c2ccc(Br)cc2)cc(-c2ccccc2)c1C#N` was > 80 µM (inactive). The result for `O=C(CN1CCN(c2ccccc2F)CC1)c1ccc(O)c(O)c1` reads > 80 µM (inactive); that for `Oc1c(C(c2ccccn2)N2CCC(Cc3ccccc3)CC2)cc(Cl)c2cccnc12` (centres undefined), > 80 µM (inactive); that for `O=C(/C=C/c1ccc([N+](=O)[O-])cc1)/C=C/c1ccco1`, > 80 µM (inactive). `COc1ccc2c(C(=O)CCl)c[nH]c2c1`: the EC50 is > 80 µM (inactive). The result for `Cc1ccn2cc(-c3ccc(O)c(O)c3)nc2c1` reads > 80 µM (inactive); that for `Oc1ccc(-c2csc(Nc3ccccn3)n2)cc1O`, > 80 µM (inactive).

For `COc1cc(OC)cc(C(=O)NC(=S)Nc2cc3oc4ccccc4c3cc2OC)c1`, the EC50 was > 80 µM (inactive). The value for `O=C(CN(c1cccc(C(F)(F)F)c1)S(=O)(=O)c1ccc(Cl)c([N+](=O)[O-])c1)NCc1ccc(F)cc1` was > 80 µM (inactive); that for `CN(c1ccccc1)S(=O)(=O)c1cccc(C(=O)NCCc2ccc(O)c(O)c2)c1` was 9.81 µM; that for `COCCN=c1scc(-c2cccs2)n1/N=C/c1ccc(O)c(O)c1O` was > 80 µM (inactive).

Turning to `C/C(=N\NC(=O)COc1ccccc1-c1ccccc1)c1ccccn1`, the EC50 is > 80 µM (inactive).

With `O=[N+]([O-])c1ccc(C=Nc2ccc(Cl)cc2Cl)s1`, the EC50 is > 80 µM (inactive). As to `N#CC1=C(N)OC2=C(CC/C2=C\c2ccccc2)C1c1ccccc1` (centres undefined), the EC50 was > 80 µM (inactive). Turning to `CC(C)(C)N1CSC(=S)N(Cc2ccccc2)C1`, the EC50 was > 80 µM (inactive). The result for `O=C(/C=C/Sc1ccccc1)c1ccccc1` reads > 80 µM (inactive); that for `Oc1ccc(/C=N/N2CCCCC2)cc1O`, > 80 µM (inactive); that for `O=[N+]([O-])c1ccc2nc(Cl)nc(-c3ccccc3)c2c1`, > 80 µM (inactive). The result for `COc1ccc(-n2nc(C#N)c(Cl)cc2=O)cc1` reads > 80 µM (inactive); that for `CC1CCC/C=C/C(=O)c2c(O)cc(O)cc2CC(=O)O1` (centres undefined), > 80 µM (inactive); that for `CS(=O)(=O)c1nc(-c2ccccc2)cc(-c2ccccc2)c1C#N`, > 80 µM (inactive). `O=C(O)CC1CCC(=C(Cl)Cl)C1` (centres undefined): the EC50 was > 80 µM (inactive). The value for `Cc1ccc(C(C)C)c(OCc2ccc(C(=O)N/N=C/c3ccc(O)c(O)c3)cc2)c1` was 4.41 µM. Consider `Cc1ccc(C(=O)/C=C/C(=O)c2ccc(C)cc2)cc1`, for which the EC50 is > 80 µM (inactive). In the case of `O=C(/C=C/c1ccco1)NC(=S)Nc1ccc(O)c(-c2nc3ccccc3s2)c1`, the EC50 is 9.84 µM. The result for `COc1ccc(/C=C2\CN(Cc3ccccc3)C/C(=C\c3ccc(OC)c(O)c3)C2=O)cc1O` reads > 80 µM (inactive); that for `CCOC(=O)C1=C(Cc2ccc(Cl)cc2)C(=O)c2ccccc2C1=O`, > 80 µM (inactive).

`CCOC(=O)C(=CNc1nc(-c2ccccc2)c(C(=O)Nc2ccc(-c3ccccc3)cc2)s1)C(=O)OCC`: the EC50 entry was “inactive”.

Turning to `O=C(N/N=C/c1ccccn1)c1ccc(Cl)c(Cl)c1`, the EC50 was > 80 µM (inactive). The value for `C=CCN1C(=O)/C(=C/c2ccc3c(c2)CCCN3CCC)C(=O)NC1=S` was > 80 µM (inactive).

Take `FC(F)(F)c1nnc2c(Sc3ccc(Cl)cc3)nc3ccccc3n12`: the EC50 is > 80 µM (inactive). The value for `O=C(C#Cc1cccc([N+](=O)[O-])c1)c1ccccc1` was > 80 µM (inactive).

Turning to `Oc1ccc(/C=N/Nc2ccnc3cc(Cl)ccc23)cc1O`, the EC50 is 8.71 µM. For the compound `O=C(N/N=C/c1ccccn1)c1cc(-c2ccccc2)nc2ccccc12`, the EC50 is > 80 µM (inactive). In the case of `COC(=O)c1cc(=O)n(Cc2ccco2)c(=Nc2ccc(F)c(Cl)c2)s1`, the EC50 was > 80 µM (inactive).

Values taken from PubChem BioAssay AID489040 (Sanford-Burnham Center for Chemical Genomics, 2010).
